Results on 2 molecules are retold here after patent publication US9403756B2, “N-phenyl anthranilic acid derivatives and uses thereof” (Ramot at Tel-Aviv University Ltd., priority 2007, dated 2016).

Series [1] relates to maximal electroshock seizure model (MES) in ICR mice. As to the kind of experiment: Maximal electroshock seizure test (MES). The note with it: Mus musculus, ip; mice; intraperitoneal, 30 minutes before electroshock; 50 mA, 0.2 sec; read-out: ED50, protection against tonic extension caused by MES. It counts as in vivo. The method, then: The anti-convulsant effect was measured by the maximal electroshock seizure model (MES) in ICR mice as previously described. The procedures followed for experimentation and maintenance of the animals were approved by the animal research ethics committee of Tel Aviv University and in accordance with the Guide for the Care and Use of Laboratory Animals (1996, National Academy of Sciences, Washington D.C.). Briefly, maximal electroshock was induced in adult mice by means of two transcorneal electrodes delivering an alternative current of 50 mA at 60 Hz for 0.2 sec using rodent shocker (Hugo Sachs Electronik, type 221). […] The compounds, dissolved in 0.9% saline, were administered intraperitoneally 30 minutes before the electroshock was performed. Animals failing to show tonic hind limb extension were scored as protected and were expressed in percentage.
Background: In the maximal electroshock model the usual endpoint is tonic extension of the hind limbs.

The next series has as its target T1, Kv11.1 or Herg (Homo sapiens, UniProt Q12809).
T1 construct: expressed in transfected cells; host or cells: Xenopus oocytes
As to the kind of experiment: Kv channel selectivity, Xenopus oocytes: Kv11.1. It counts as cell-based. The note with it: 25 μM, −10 mV. The method, then: (§1) Voltage-clamp measurements in Xenopus oocytes were performed as previously described.
(§2) The selectivity of NH29 on other relevant Kv channels expressed in Xenopus oocytes was also studied, and the results are summarized in Table 3 below. The specificity of NH29 at 25 μM and 50 μM towards various Kv channels was tested in Xenopus oocytes, except for Kv1.2 which was checked in transfected CHO cells. The current amplitude of the various Kv channels was tested at the indicated voltages and the effect of the drugs was expressed as fold of the control amplitude measured under the same conditions in the absence of the drug. The data in Table 3 are expressed as mean±SEM of 5-7 separate experiments.

Another series addresses T2, Kv 7.4 (Homo sapiens, UniProt P56696).
T2 construct: expressed in transfected cells; host or cells: Xenopus oocytes
The series can be described thus: Kv channel selectivity, Xenopus oocytes: Kv7.4. The note with it: −30 mV. The format is cell-based. On the procedure:
as §1, §2

A further series concerns the target T3, Kv 7.1 (Homo sapiens, UniProt P51787).
T3 construct: expressed in transfected cells; host or cells: Xenopus oocytes
The series can be described thus: Kv channel selectivity, Xenopus oocytes: Kv7.1. It counts as cell-based. The note with it: for Fold current amplitude: +30 mV, Xenopus oocytes. The method, then:
as §1, §2

The next series addresses T4, TRPV1 channel (Homo sapiens, UniProt Q8NER1).
T4 construct: expressed in transfected cells; host or cells: CHO cells
The series can be described thus: TRPV1 currents in transfected CHO cells activated with capsaicin. It counts as cell-based. The note with it: 0.5 μM capsaicin. On the procedure:
Chinese hamster ovary (CHO) cells were grown in Dulbecco's modified Eagle's medium (DMEM) supplemented with 2 mM glutamine, 10% fetal calf serum and antibiotics. Briefly, 40,000 cells seeded on poly-D-lysine-coated glass coverslips (13 mm diameter) in a 24-multiwell plate were transfected with pIRES-CD8 (0.5 μg) as a marker for transfection, and with Kv7.2 (0.5 μg) and Kv7.3 (0.5 μg) or TRPV1 […] or TRPV6 […].
For electrophysiology, transfected cells were visualized approximately 40 hours following transfection, using anti-CD8 antibody-coated beads. Transfection was performed using Fugene 6 (Roche, Indianapolis Ind., USA) according to the manufacturer's protocol.
Voltage-clamp recordings in CHO cells were performed, using the whole-cell configuration of the patch-clamp technique. Signals were amplified using an Axopatch 200B patch-clamp amplifier (Molecular Devices, Sunnyvale, Calif.), sampled at 2 kHz and filtered at 800 Hz via a 4-pole Bessel low pass filter. Data were acquired using pClamp 9.2 software (Molecular Devices) and an IBM compatible Pentium IV computer in conjunction with a DigiData 1322A interface (Molecular Devices). The patch pipettes were pulled from borosilicate glass (Warner Instrument Corp, USA) with a resistance of 2-5 MΩ. […] Series resistances (3-13 MΩ) were compensated (75-90%) and periodically monitored. […]

Another series has as its target T5, KCNQ2 mutant L197G (Homo sapiens, UniProt O43526, L197G).
T5 construct: expressed in transfected cells
The series can be described thus: KCNQ2 S4 mutant L197G. The format is cell-based. The note with it: 25 μM NH29 (25 M [sic]). From the text: (§3) FIGS. 12A-F present the potentiating effect of NH29, an exemplary channel opener compound according to embodiments of the present invention, on selected KCNQ2 mutants. Shown are bar diagrams comparing the potentiating effect of NH29 on native KCNQ2 and KCNQ2 mutants, wherein the mutated amino acids are located at the S1-S2 helix region (FIG. 12A) or S4 helix region (FIG. 12D) and wherein the opener effect is expressed as percent of the control current in the absence of the opener. For comparison, marked as a green line, is the observed current increase of native KCNQ2 by NH29. FIGS. 12B 12C, 12E and 12F present representative traces recorded from CHO cell transfected with the KCNQ2 mutant S122A, S121A, L206C and R201A respectively, before and after external application of 25 μM of NH29 and wherein the membrane potential was stepped from −90 mV holding potential to −40 mV for 1.5 seconds pulse duration.
(§4) Voltage-clamp recordings in CHO cells were performed, using the whole-cell configuration of the patch-clamp technique. Signals were amplified using an Axopatch 200B patch-clamp amplifier (Molecular Devices, Sunnyvale, Calif.), sampled at 2 kHz and filtered at 800 Hz via a 4-pole Bessel low pass filter. […] Series resistances (3-13 MΩ) were compensated (75-90%) and periodically monitored.

The next series deals with T6, KCNQ2 mutant R198A (Homo sapiens, UniProt O43526, R198A).
T6 construct: expressed in transfected cells
As to the kind of experiment: KCNQ2 S4 mutant R198A. The note with it: 25 μM NH29 (25 M [sic]). It counts as cell-based.
Excerpt: as §3, §4

Another series has as its target T7, KCNQ2 mutant Y118S (Homo sapiens, UniProt O43526, Y118S).
T7 construct: expressed in transfected cells
The series can be described thus: KCNQ2 mutant Y118S. The format is cell-based. The note with it: 25 μM NH29. On the procedure:
(§5) FIG. 8 presents a bar-graph comparing the potentiating effect of 25 μM of Compound NH29 on various KCNQ subunits and mutants, wherein the opener effect is expressed as percent of the control current in the absence of the opener;

The target of another series is T8, homomeric KCNQ3 channels (Homo sapiens, UniProt O43525).
T8 construct: expressed in transfected cells
As to the kind of experiment: Homomeric KCNQ3 channels. The format is cell-based. The note with it: 25 μM; very small currents through homomeric KCNQ3. On the procedure:
as §5
FIG. 8 presents a bar-graph comparing the potentiating effect of 25 μM of Compound NH29 on various KCNQ subunits and mutants, wherein the opener effect is expressed as percent of the control current in the absence of the opener.

A further series has as its system DRG neurons. The series can be described thus: Current-clamp recordings in cultured DRG neurons. The format is cell-based, rat. The note with it: 25 μM NH29; 75-250 pA for 400 ms; control 8.7±0.8; n=12.

Each structure is given as a SMILES string.

T3 sequence (P51787 whole entry): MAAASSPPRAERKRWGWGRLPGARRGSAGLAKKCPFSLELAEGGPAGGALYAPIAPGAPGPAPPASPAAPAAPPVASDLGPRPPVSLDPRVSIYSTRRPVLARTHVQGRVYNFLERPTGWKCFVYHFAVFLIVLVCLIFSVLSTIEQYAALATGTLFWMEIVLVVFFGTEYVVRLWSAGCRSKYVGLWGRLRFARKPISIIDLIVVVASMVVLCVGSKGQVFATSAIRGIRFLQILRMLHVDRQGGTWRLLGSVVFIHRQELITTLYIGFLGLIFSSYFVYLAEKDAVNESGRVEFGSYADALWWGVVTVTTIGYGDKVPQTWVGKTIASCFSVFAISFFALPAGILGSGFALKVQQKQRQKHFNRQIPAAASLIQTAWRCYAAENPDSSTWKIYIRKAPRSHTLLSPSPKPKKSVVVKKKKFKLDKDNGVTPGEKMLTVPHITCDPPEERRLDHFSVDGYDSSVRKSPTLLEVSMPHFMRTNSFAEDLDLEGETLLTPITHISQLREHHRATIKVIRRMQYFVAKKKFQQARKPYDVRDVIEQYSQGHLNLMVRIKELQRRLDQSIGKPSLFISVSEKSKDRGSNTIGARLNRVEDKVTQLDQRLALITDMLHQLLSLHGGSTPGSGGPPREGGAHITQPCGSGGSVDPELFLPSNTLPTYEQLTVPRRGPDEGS
T2 sequence (P56696 whole entry): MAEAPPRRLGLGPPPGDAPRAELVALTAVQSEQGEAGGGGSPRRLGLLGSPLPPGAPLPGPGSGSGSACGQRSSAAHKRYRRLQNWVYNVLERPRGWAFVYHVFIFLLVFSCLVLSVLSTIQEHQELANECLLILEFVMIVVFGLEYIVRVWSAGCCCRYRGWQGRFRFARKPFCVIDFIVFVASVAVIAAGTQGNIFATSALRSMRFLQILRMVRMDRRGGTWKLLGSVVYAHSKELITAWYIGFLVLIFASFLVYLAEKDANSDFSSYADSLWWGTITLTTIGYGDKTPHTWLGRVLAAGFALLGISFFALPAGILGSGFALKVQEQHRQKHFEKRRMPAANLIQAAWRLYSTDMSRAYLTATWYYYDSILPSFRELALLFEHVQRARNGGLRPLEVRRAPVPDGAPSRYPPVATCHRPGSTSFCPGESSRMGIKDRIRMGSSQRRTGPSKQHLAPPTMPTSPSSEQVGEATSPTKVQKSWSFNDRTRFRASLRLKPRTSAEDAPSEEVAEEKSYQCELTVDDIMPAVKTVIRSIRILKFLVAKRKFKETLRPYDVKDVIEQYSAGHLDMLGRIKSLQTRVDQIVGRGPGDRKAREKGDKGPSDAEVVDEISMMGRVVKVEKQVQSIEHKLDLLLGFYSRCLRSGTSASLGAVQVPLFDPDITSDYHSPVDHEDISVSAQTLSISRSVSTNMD
T4 sequence (Q8NER1 whole entry): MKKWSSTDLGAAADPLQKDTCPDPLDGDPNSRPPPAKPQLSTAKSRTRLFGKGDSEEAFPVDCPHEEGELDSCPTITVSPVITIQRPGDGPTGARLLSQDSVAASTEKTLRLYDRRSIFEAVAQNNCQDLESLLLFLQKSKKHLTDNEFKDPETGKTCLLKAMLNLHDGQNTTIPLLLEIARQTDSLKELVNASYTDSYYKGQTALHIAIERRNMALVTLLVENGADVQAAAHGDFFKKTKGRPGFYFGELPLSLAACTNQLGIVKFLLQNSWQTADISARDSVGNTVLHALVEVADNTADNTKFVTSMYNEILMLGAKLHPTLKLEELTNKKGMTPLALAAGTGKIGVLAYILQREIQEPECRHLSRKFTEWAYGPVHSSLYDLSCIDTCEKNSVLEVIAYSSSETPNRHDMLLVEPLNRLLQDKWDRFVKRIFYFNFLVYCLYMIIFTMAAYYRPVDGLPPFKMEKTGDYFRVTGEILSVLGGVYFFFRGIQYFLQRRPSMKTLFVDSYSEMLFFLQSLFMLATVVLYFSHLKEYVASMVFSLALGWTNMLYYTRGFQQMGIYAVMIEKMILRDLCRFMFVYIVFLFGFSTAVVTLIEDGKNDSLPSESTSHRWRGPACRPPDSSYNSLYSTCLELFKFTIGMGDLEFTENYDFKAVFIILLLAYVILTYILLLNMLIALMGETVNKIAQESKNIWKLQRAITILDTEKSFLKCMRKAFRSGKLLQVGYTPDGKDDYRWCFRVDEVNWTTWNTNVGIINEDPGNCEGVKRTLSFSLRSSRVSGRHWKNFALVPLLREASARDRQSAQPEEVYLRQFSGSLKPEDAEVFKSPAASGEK
T5 sequence (O43526 whole entry L197G): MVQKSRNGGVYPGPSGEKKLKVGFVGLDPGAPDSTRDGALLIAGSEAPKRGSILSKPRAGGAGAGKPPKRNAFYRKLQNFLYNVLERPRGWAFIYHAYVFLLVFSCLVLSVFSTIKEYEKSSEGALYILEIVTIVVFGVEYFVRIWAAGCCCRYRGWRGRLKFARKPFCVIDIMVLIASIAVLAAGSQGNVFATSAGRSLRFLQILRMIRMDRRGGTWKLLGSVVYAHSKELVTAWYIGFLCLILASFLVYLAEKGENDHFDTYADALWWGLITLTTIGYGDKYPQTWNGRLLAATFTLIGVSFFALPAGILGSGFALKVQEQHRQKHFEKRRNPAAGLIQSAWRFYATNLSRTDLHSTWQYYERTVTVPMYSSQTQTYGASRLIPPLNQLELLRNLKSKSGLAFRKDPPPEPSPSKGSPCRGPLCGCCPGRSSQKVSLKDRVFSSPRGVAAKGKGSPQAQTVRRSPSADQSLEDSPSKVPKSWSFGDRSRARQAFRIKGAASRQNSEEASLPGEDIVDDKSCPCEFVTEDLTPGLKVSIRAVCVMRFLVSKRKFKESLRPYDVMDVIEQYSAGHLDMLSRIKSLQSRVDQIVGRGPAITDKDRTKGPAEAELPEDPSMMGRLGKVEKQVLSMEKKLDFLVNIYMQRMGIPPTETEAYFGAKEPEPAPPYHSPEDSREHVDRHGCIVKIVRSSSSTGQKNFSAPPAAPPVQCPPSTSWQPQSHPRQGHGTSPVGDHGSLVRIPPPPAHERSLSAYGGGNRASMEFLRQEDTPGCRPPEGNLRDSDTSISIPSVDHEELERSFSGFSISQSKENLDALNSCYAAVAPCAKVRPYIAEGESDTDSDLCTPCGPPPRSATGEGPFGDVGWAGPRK
T7 sequence (O43526 whole entry Y118S): as the sequence (O43526 whole entry L197G) above, with Y118S, G197L counted along it
T8 sequence (O43525 whole entry): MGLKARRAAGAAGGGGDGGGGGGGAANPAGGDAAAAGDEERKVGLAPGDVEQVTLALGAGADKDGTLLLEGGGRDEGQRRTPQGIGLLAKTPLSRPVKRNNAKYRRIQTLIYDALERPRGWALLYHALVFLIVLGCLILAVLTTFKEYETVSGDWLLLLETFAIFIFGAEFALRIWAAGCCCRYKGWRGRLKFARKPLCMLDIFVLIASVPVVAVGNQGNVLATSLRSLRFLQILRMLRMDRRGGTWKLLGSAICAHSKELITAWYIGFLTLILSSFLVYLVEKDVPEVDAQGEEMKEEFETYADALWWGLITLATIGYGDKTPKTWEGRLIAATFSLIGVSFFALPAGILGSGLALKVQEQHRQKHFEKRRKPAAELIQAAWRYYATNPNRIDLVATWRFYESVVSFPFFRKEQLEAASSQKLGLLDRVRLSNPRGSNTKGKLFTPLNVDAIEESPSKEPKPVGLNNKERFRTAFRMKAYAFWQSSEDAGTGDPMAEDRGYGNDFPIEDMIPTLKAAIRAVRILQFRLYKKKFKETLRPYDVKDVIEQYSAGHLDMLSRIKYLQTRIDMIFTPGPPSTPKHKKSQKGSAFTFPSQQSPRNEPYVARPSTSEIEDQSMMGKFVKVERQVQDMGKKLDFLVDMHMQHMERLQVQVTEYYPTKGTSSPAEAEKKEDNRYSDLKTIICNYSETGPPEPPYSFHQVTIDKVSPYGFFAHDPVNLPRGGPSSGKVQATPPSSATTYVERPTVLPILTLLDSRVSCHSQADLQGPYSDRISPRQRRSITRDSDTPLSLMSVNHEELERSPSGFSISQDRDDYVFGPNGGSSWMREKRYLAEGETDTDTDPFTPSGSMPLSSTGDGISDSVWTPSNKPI
T6 sequence (O43526 whole entry R198A): as the sequence (O43526 whole entry L197G) above, with G197L, R198A counted along it

As usually defined, the ED50 is the dose at which the effect has come halfway, by size or by number of responders. On to `O=C(Cc1cc([N+](=O)[O-])ccc1Nc1c(Cl)cccc1Cl)OCCO` [NH25], for which the ED50 in series [1] came to 12 mg/kg.
One may read the inhibition as the percentage by which the read-out fell short of the control. On to `O=C(Cc1cc([N+](=O)[O-])cc([N+](=O)[O-])c1Nc1c(Cl)cc([N+](=O)[O-])cc1Cl)NCCO` [NH29], for which the Fold current amplitude at Kv11.1 or Herg is 1.1 ± 0.02 fold; on Kv 7.4 (25 μM) it was 1.0 ± 0.12 fold; on Kv 7.4 (50 μM) it was 0.9 ± 0.04 fold; on Kv 7.1 (25 μM), 0.93 ± 0.02 fold; at Kv 7.1 (50 μM) it was 0.72 ± 0.02 fold. Also, the inhibition at 50 µM on Kv 7.1 (50 μM, read-out: inhibition of Kv7.1 current) amounted to 23%. Moreover, on TRPV1 channel (NH29 at 5-50 M as printed), the “inhibition of TRPV1 channels” value is on record as “potently inhibited TRPV1 channels”. The “inhibition of TRPV1 current” value at TRPV1 channel (50 μM, reversible) is “almost completely”. Also, the “fold enhancement of current” value at KCNQ2 mutant L197G is reported as 1.5 fold; at KCNQ2 mutant R198A, 1.6 fold. On KCNQ2 mutant Y118S, the “fold potentiation of current” value came to 2.1 fold. For the same molecule, the “opening activity on homomeric KCNQ3 channels” value at homomeric KCNQ3 channels is “no opening activity was detected”. The “number of evoked action potentials” value in the series on DRG neurons is recorded as 0.9±0.1.
